Tests used:
[1] = biological target: T1, p75^NTR-Fc (Homo sapiens, UniProt P08138); assay: NGF/p75NTR-Fc binding by NGF ELISA, Gaddum/Schild fit
T1 construct: purchased R&D Systems
Protocol: Briefly, 96-well plates were incubated with 0.1 pmol (at 1 nM) of p75/Fc or TrkA/Fc recombinant protein obtained from R&D System (Minneapolis, Minn., United States of America) overnight at 4° C. followed by incubation with blocking buffer for 1 hour at room temperature. […] Plates were then washed five times with Tris-buffered saline (TBS) containing 0.05% Tween-20 and incubated with anti-NGF rabbit polyclonal antibody overnight at 4° C. Following five washes with TBS, wells were incubated for 2.5 hours at room temperature with anti-rabbit IgG HRP conjugate and washed five times. 3,3′,5,5′-tetramethyl-benzidine substrate was added and the optical density measured at 450 nm.
A regression analysis of NGF-p75^NTR binding in the presence of the p75-binding compounds was performed. The data was fit using the Nonlinear Regression module of Sigmaplot, to a modification of the Gaddum/Schild equation (adapted from Motulsky, H. J., and Christopoulos. A. (2003) A Practical Guide to Curve Fitting, 2nd edn. (San Diego, Calif., GraphPad Software, Inc.): […]

[2] = test system: NFκB-p65; assay: NFκB-p65 phosphorylation western blot in hippocampal cultures; assay type: cell-based, mouse; settings: 20 nM
Protocol: (§1) For assays of Trk, AKT, NFκB, and ERK activation, hippocampal neurons derived from E16-17 mice were cultured in poly-L-lysine coated six-well plates (Corning, Inc., Corning, N.Y., United States of America) in DMEM containing 10% FBS, followed by incubation in serum-free DMEM for 2 hours before addition of neurotrophins or compounds. At the indicated time points, neurons were harvested in lysis buffer consisting of: 20 mM Tris, pH 8.0, 137 mM NaCl, 1% Igepal CA-630, 10% glycerol, 1 mM PMSF, 10 μg/ml aprotinin, 1 μg/ml leupeptin, 500 μM orthovanadate (Zhou, J., Valletta, J. S., Grimes, M. L., Mobley, W. C. (1995) J Neurochem 65, 1146-1156).
(§2) Lysates were centrifuged, the supernatant collected, and protein concentrations determined using the BCA Protein Assay Reagent obtained from Pierce (Rockford, Ill., United States of America). Western blots were performed as described previously (Yang, T. et al. (2003) J Neurosci 23, 3353-3363). Western blot signals were detected using the ECL Chemiluminescence System obtained by Amersham (Piscataway, N.J., United States of America) (Yang, T. et al. (2003) J Neurosci 23, 3353-3363).

[3] = test system: AKT; assay: AKT activation western blot in hippocampal cultures; assay type: cell-based, mouse; settings: 20 nM, relative to NGF
Protocol: as §1, §2

[4] = test system: hippocampal neurons; assay: Hippocampal neuron survival with signaling pathway inhibitors; assay type: cell-based, mouse; settings: BDNF/NGF 25 ng/ml, compounds 5 nM, 48 h
Protocol: Hippocampal neurons were prepared from E16-17 mouse embryos as previously described (Yang. T. et al. (2003) J Neurosci 23, 3353-3363). […] For studies employing p75^NTR+/+ and p75^NTR−/− neurons, mice carrying a mutation in exon 3 of the p75^NTR gene (Lee, K. F. et al. (1992) Cell 69, 737-749) were bred onto a B6 congenic background (>10 B6 backcrosses).
After 48 hours in culture, cell survival was assessed as previously described (Longo, F. M., Manthorpe. M., Xie. Y. M., Varon, S. (1997) J Neurosci Res 48, 1-17) using a combination of standard morphological criteria along with visual determination of whether a given cell converted MTT to its blue formazan product. The number of surviving neurons was determined by counting the total number of cells in each well that were both morphologically intact and filed with blue product (Longo F. M., Manthorpe. M., Xie, Y. M., Varon, S. (1997) J Neurosci Res 48, 1-17). For each neurotrophin or compound concentration, duplicate wells were counted and the resulting values averaged. Activity of each compound was confirmed by blinded counts. Counts were normalized to survival achieved with 25 ng/ml BDNF or to baseline survival. Fitting of dose-responsive curves was performed with Sigmaplot obtained from SYSTAT Software Inc. (Richmond, Calif., United States of America).
For all studies applying signaling inhibitors, p75^NTR antibodies or p75^NTR−/− neurons, survival was assessed at 48 hours.

[5] = test system: E17 hippocampal neurons; assay: Aβ-induced death of hippocampal neurons; assay type: cell-based; settings: Aβ1-42 10 μM; NGF at 100 pg/ml
Protocol: Using previously well established protocols, Aβ was preincubated for 3 days in water to allow formation of oligomers. E17 hippocampal neurons were incubated for 5 days to allow for maturation prior to addition of Aβ with test compounds.

[6] = Age-related hair loss in middle-aged male mice; assay type: in vivo
[7] = Preliminary studies of oral uptake and blood-brain barrier penetration; assay type: in vivo

T1 sequence (P08138 with tags, fused parts or gaps limits assumed): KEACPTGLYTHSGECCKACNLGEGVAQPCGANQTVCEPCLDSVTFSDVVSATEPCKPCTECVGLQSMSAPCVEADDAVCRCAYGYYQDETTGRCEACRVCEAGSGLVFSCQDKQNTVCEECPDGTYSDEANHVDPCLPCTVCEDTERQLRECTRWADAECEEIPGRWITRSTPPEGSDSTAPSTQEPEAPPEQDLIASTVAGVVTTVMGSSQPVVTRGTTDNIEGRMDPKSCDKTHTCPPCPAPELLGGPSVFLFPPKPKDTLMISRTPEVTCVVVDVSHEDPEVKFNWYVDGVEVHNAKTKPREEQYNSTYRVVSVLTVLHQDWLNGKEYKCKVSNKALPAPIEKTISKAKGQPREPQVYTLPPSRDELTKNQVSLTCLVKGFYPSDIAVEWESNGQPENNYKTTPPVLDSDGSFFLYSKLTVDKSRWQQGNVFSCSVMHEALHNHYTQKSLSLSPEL

With CCC(C)C(N)C(=O)NCCN1CCOCC1 (centres unmarked) [Compound 4] as the compound, how does the “A2 relative to EC50 of biologic effect” value [1] read?
Its value is “nearly four orders of magnitude greater”.

What about the “compound concentration at which binding curve differs from 0 nM curve (P<0.0001)” value ([1]; ANOVA with post-hoc Bonferroni/Dunn) of the same compound?
The value was no less than 500 nM.

And the Schild coefficient ([1]; Gaddum-Schild fit)?
The Schild coefficient was 0.58 +/−0.04.

What about the “shift of the NGF/p75NTR-Fc binding curve” value ([1]; increasing compound concentrations) of the same compound?
Its value is “significantly to the right”.

What about the “increase in NFκB-p65 phosphorylation” value [2] of the same compound?
Its value is “approximately 1.5 fold”.

And the “onset of AKT activation” value [3]?
Its value is “slower than that of NGF”.

And the “effect of PD98059 (ERK inhibitor) on survival promoted by the substance” value ([4]; PD98059 50 μM)?
The value was “no significant decrease”.

What about the “effect of SN50 (NFκB translocation inhibitor) on survival promoted by the substance” value ([4]; SN50 2.5 μg/ml) of the same compound?
Its value is “significantly reduced”.

And the “protection against Aβ1-42-induced death” value [5]?
The value was “entirely block”.

And the “mice with hair loss, studies taken together” value ([6]; both studies pooled, p 0.001 Fisher's Exact test vs vehicle)?
Its value is 0 of 14.

What about the “mice with hair loss” value ([6]; follow up study, middle-aged male mice, 2-month time point) of the same compound?
The value was 0 of 9.

And the “mice with age-related hair loss” value ([6]; three-month toxicology trial, male mice)?
The value was 0 of 5.

And the blood-brain barrier penetration [7]?
The blood-brain barrier penetration was “blood-brain barrier penetration”.

And the oral uptake [7]?
The oral uptake was “significant oral uptake”.

Reference: patent US7723328B2, “Methods of facilitating cell survival using neurotrophin mimetics” (The University of North Carolina at Chapel Hill, priority 2005, dated 2010)
